One assay relates to human IR-B. Briefly: IR-B autophosphorylation (In-Cell Western). In kind it is cell-based. As to conditions: for EC50: CHO cells overexpressing IR-B, 15 min at 37°C, In-Cell Western, means ± SEM, at least three times, read-out: IR-B auto-phosphorylation EC50. The text has this: CHO cells expressing either the IR-A or the IR-B isoform were used for IR autophosphorylation assays using In-Cell Western. For the analysis of IGF1R autophosphorylation the receptor was overexpressed in a mouse embryo fibroblast 3T3 Tet off cell line (BD Bioscience, Heidelberg, Germany) that was stably transfected with IGF1R tetracycline-regulatable expression plasmid resulting in the expression of ∼2.6×10^5 IGF1R per cell (as determined by FACS analysis, unpublished data). In order to determine the receptor tyrosine phosphorylation level, cells were seeded into 96-well plates and grown for 48 h. Cells were serum starved with serum-free medium αMEM (PAN Biotech GmbH, Aidenbach, Germany) for 3–4 h. […] After incubation the medium was discarded and the cells were fixed in 3.75% freshly prepared para-formaldehyde for 20 min. Cells were permeabilized with 0.1% Triton-X-100 in PBS for 20 min. Blocking was performed with Odyssey blocking buffer (LI-COR, Bad Homburg, Germany) overnight at 4°C. Anti-pTyr 4G10 (Millipore, Schwalbach, Germany) was incubated for 2 h at room temperature. After incubation of the primary antibody, cells were washed with PBS+0.1% Tween20. The secondary anti-mouse-IgG-800-CW antibody (Rockland, Gilbertsville, PA, USA) was incubated for 1 h. Results were normalized by the quantification of DNA with TO-PRO3 dye (Invitrogen, Karlsruhe, Germany). Data were obtained as relative units (RU) and are presented as fold over basal.
(§1) For each experiment, IC50 or EC50 values were obtained using the 4-parameter logistic model according to Ratkowsky and Reedy (1986). The adjustment was obtained by non-linear regression using the Levenberg-Marquardt algorithm in SAS v9.1.3 software via Biost@t-Speed V2.0-LTS internal application. If necessary, lower and upper asymptotes were set to 0 and 100, respectively.
The binding of a constant concentration of [^125I]insulin to plasma membranes from CHO cells overexpressing either IR-A or IR-B was measured in presence of increasing concentrations of unlabeled competing ligand after incubation at room temperature for 12 h. All data has been corrected for non-specific binding and are expressed as percentage of [^125I]insulin in absence of competing ligand. To analyze the insulin-stimulated activation and subsequent autophosphorylation of the insulin receptor CHO cells overexpressing the human IR-A (C) or IR-B (D) were stimulated for 15 min at 37°C with increasing concentrations of peptides, then the cells were fixed with 3.7% PFA and the amount of phosphotyrosines was analyzed via In-Cell Western. The data represent mean values ± SEM of at least 3 individual experiments measured in quadruplicate.
Insulin receptor autophosphorylation was studied using CHO cells overexpressing either IR-A or IR-B. For detection an immunocytochemical microplate assay (In-Cell Western) based on two-colour fluorescence was applied.

For a further assay, the system named is primary rat adipocytes. Briefly: Metabolic activity: insulin-stimulated lipid synthesis in primary rat adipocytes. The following applies: for EC50: incorporation of [3-^3H]glucose into toluene-extractable lipids, 90 min at 37°C, pH 7.4, means ± SEM, five different adipocyte preparations, read-out: Metabolic potency EC50; for metabolic activity, EC50 lower than M1: relative to M1; for lipid synthesis EC50 higher relative to human insulin: fold higher EC50 relative to insulin. In kind it is cell-based, rat (Sprague-Dawley). How it is done: The metabolic activity of the different insulins was compared using insulin-stimulated lipid synthesis in primary rat adipocytes. Primary rat adipocytes were prepared according to published procedures, [33]. Briefly, rats (Sprague-Dawley, male, 140–160 g, fed ad libitum) were provided from Charles-River (Sulzfeld, Germany) and killed by cervical dislocation in accordance with the German animal protection law. The animals were used for the preparation of primary adipocytes, exclusively, and were not subjected to any pretreatment, such as drug administration or starvation. Epididymal fat pads were rapidly removed, stripped of blood vessels and placed in PBS. Subsequently, the pads were washed with KRBB bubbled with 5% O2/95% CO2. Each pad was then cut into two or three pieces. Two pieces of each were incubated with 1.5 mL of digestion buffer (10 mg collagenase [Worthington Inc., CLS, type I, 190 units/mg] in 10 ml of KRBB containing 9 mg glucose) for 15–30 min at 37°C in a shaking water bath (240 cycles/min). Released adipocytes were separated from residual undigested tissue by passage through a nylon web (mesh size 150 µm) and washed by flotation in a plastic tube two or three times with KRBB and adjusted to the appropriate titer of 3.5×10^5 cells/mL. For distribution of the adipocytes, 200 µL of the suspension was removed under continuous gentle stirring with a plastic agitator.
Lipid synthesis was measured as the incorporation of [3-^3H]glucose into toluene-extractable lipids, at a final cell titer of […] in KRBB (1.2 mM KH2PO4, 1.2 mM MgSO4, 4.8 mM KCl, 25 mM NaHCO3, 120 mM NaCl, 2.4 mM CaCl2, containing 1% BSA [defatted, fraction V, Sigma, Deisenhofen, Germany] and 37 µM glucose and adjusted to pH 7.4) according to published procedures (Müller et al., 2008) with the following modifications: 680 µL of KRBB were filled into 10-mL scintillation vials and supplemented with 100 µL of D-[3-^3H]glucose (2 µCi/mL KRBB, 1 mM, Amersham-Buchler, Braunschweig, Germany) and 20 µL of insulin solution in KRBB. Lipid synthesis was started by the addition of 200 µL of adipocyte suspension in KRBB. After incubation for 90 min at 37°C under an atmosphere of 5% O2/95% CO2 and gentle shaking, 10 mL of toluene-based scintillation cocktail (Quickszint 501, Zinsser, Germany) was added. The samples were vigorously mixed and after phase separation (2 to 4 h) measured for radioactivity by liquid scintillation counting. Determination of the radioactivity contained in the toluene phase and corrected for non-specific spill-over of the radioactivity of unincorporated radiolabelled glucose contained in the water phase predominantly reflects the de novo lipid synthesis.
as §1
Figure 3 Metabolic activity of insulin glargine and its metabolites in rat adipocytes. To compare the metabolic activity of glargine and its metabolites insulin-stimulated lipid synthesis in isolated primary rat adipocytes was analyzed by incorporation of [3-^3H]glucose into toluene-extractable lipids and subsequent measurement of radioactivity by liquid scintillation counting. The adipocytes were treated with increasing concentrations of insulin, analogs, metabolites or IGF-1 for 90 min at 37°C in the presence of [3-^3H]glucose. Each point represents the mean ± SEM of five different adipocyte preparations with activity measurements done in duplicate.

“[Gly^A21,des-Thr^B30]insulin [Glargine M2]”: the concentration giving a half-maximal response (EC50) is 21.4 ± 2.3 nM in the assay with human IR-B and 0.087 ± 0.007 nM with primary rat adipocytes. Moreover, in the assay with primary rat adipocytes, the “metabolic activity, EC50 lower than M1” value is on record as 0.6 fold.
The matching figures for [Gly^A21,Arg^B31]insulin [Glargine IM]: 20.9 ± 1.3 nM, 0.098 ± 0.012 nM and 0.6 fold.
For [Asp^B10]insulin, the values for the EC50 with human IR-B and in the assay on primary rat adipocytes were 3.32 ± 0.78 nM and 0.031 ± 0.005 nM, respectively.
Take “Human insulin: human insulin produced by recombinant DNA techniques or enzymatic semisynthesis”: the figures for the half-maximal effective concentration (EC50) with human IR-B and in the assay with primary rat adipocytes were 11.7 ± 1.4 nM and 0.045 ± 0.003 nM, respectively.
Regarding [Gly^A21]insulin [Glargine M1], the EC50 with human IR-B came to 18.1 ± 1.7 nM; with primary rat adipocytes, 0.139 ± 0.009 nM. Also, the “lipid synthesis EC50 higher relative to human insulin” value with primary rat adipocytes was found to be 3.0 fold.
With “[Gly^A21,Arg^B31,Arg^B32]insulin [Glargine]”, the half-maximal effective concentration (EC50) in the assay with human IR-B came out at 23.6 ± 2.1 nM. In the assay on human IR-B (relative to human insulin), the “decrease in IR-B autophosphorylation activity” value is on record as 30–50%. In the assay on primary rat adipocytes, the “lipid synthesis EC50 higher relative to human insulin” value is recorded as 1.4 fold and the EC50 was 0.066 ± 0.005 nM.
With “IGF-1: IGF-1 obtained from R&D Systems and Cell Sciences”, the EC50 in the assay with human IR-B was above 1000 nM. For the same substance, in the assay on primary rat adipocytes, the “lipid synthesis EC50 higher relative to human insulin” value was determined as 422 fold and the concentration giving a half-maximal response (EC50) came to 19 ± 0.93 nM.
